Measured values from US20170290871A1, “METHOD OF TREATING HYPERTENSION” (KING SAUD UNIVERSITY, priority 2016, published 2017).

Columns and labels:
Format in all cases: in vivo, Sprague-Dawley rats
[1] = tested on: hypertension induced rats; experiment: Serum marker enzymes (AST, ALT, ALP) of hypertension induced rats
Description: (§1) Male Sprague-Dawley rats were divided into nine groups of six rats each and treated daily for three consecutive weeks. High salt-sucrose solution was given to the rats to induce hypertension in them. […] At the end of the experimental period, arterial blood pressure and heart rate of all rats were recorded. The rats were sacrificed by decapitation and the free running blood was collected for analysis. The systolic blood pressure (SBP), the diastolic blood pressure (DBP) and the heart rate (HR) of the rats were measured by the tail cuff every day during the entire period of study in control, drug and extract treated animals. For the estimation of alanine transaminase (ALT), aspartate transaminase (AST), alkaline phosphatase (ALP), total cholesterol, triglycerides, low-density lipoprotein (LDL) and high density lipoprotein (HDL), blood samples were collected in clot activator gel tubes. The serum was separated by centrifuging the blood samples at 5000 rpm for 10 minutes. Serum biochemical parameters were then measured by using commercially available reagent kits.

[2] = tested on: hypertension induced rats; experiment: Blood pressure and heart rate of salt-sucrose hypertension induced rats; details: captopril 20 mg/kg daily for three weeks, mean ± SD of 6
Description: (§2) Male Sprague-Dawley rats were divided into nine groups of six rats each and treated daily for three consecutive weeks. High salt-sucrose solution was given to the rats to induce hypertension in them. […] At the end of the experimental period, arterial blood pressure and heart rate of all rats were recorded. The rats were sacrificed by decapitation and the free running blood was collected for analysis. The systolic blood pressure (SBP), the diastolic blood pressure (DBP) and the heart rate (HR) of the rats were measured by the tail cuff every day during the entire period of study in control, drug and extract treated animals.

[3] = tested on: hypertension induced rats; experiment: GSH and SOD in tissue homogenates (liver, heart, kidney) of hypertension induced rats
Description: as §2, with “animals. After collecting the blood samples from the rats, their abdominal cavity was opened; heart, liver and kidney were dissected out and homogenized in Tris-HCl buffer solution to make a 20% homogenate. Glutathione (GSH) and superoxide dismutase (SOD) were determined using the method described by Ellman & Misra for assessing the oxidative damage parameters in some organs.” for “animals.”

[4] = tested on: hypertension induced rats; experiment: Plasma lipid profile of hypertension induced rats; details: captopril 20 mg/kg daily for three weeks, mean ± SD of 6
Description: as §1

[5] = serum, captopril 20 mg/kg daily for three weeks, mean ± SD of 6
[6] = heart homogenate, captopril 20 mg/kg, mean ± SD of 6
[7] = kidney homogenate, captopril 20 mg/kg, mean ± SD of 6
[8] = liver homogenate, captopril 20 mg/kg, mean ± SD of 6

`C[C@H](CS)C(=O)N1CCC[C@H]1C(=O)O` [Captopril, captopril] was tested, and the “levels of AST, ALT, ALP and lipid profile, in words” value [1] was “brought back significantly to near normal”, the ALP [1, 5] was 132.12 ± 17.41a* IU/L and the ALT [1, 5] was 85.44 ± 10.33a* IU/L. The AST [1, 5] was 45.03 ± 5.44a* IU/L, the “Diastolic BP” value [2] was 95.56 ± 10.5a* mm Hg and the Heart rate [2] was 328.86 ± 36.14a* beats/min. The “Systolic BP” value [2] was 121.45 ± 10.9a* mm Hg, the “Heart GSH” value [3, 6] was 38.78 ± 4.69a^ mM/L and the “Heart SOD” value [3, 6] was 68.92 ± 9.08a^@ U/mg. The “Kidney GSH” value [3, 7] was 31.04 ± 2.78a^@ mM/L, the “Kidney SOD” value [3, 7] was 67.96 ± 6.08a^@ U/mg and the “Liver GSH” value [3, 8] was 28.92 ± 4.12a^ mM/L. The “Liver SOD” value [3, 8] was 42.67 ± 5.62a^ U/mg, the “levels of enzymic antioxidants, in words” value ([3]; tissue homogenates) was “retained to near normal values significantly” and the CHOLESTEROL [4] was 135.42 ± 13.41a* mg/dL. The HDL [4] was 41.46 ± 4.55a* mg/dL, the LDL [4] was 89.23 ± 9.8a* mg/dL and the TRIGLYCERIDES [4] was 106.41 ± 9.52a* mg/dL.
